This is an account of results in a melting point compilation (Tetko et al.; mined from patent text by program, amines drawn as free bases though some values may be those of a salt).

`COc1cc2c(cc1OCc1ccccc1)CN(Cc1ccccc1)C2` had a melting point of 94 to 96 °C. For the molecule `O=S1(=O)CCN(c2nc(Cl)nc3c(Cl)ncnc23)CC1`, the melting point fell in the range of 270 to 273 °C.

On to `Cc1noc(NC(=O)c2cnccc2C(F)(F)F)c1Cl`, for which the melting point fell in the range of 153 to 156 °C. The value for `Cc1noc(-c2c3cccc(-c4ccc(Cl)cc4Cl)c3nn2C)n1` was 178 °C; that for `Nc1c(F)c(F)nc(F)c1Cl` was 118 to 120 °C. Regarding `CN1CC(CN=[N+]=[N-])CC2c3cccc4c3c(cn4C)CC21` (stereo not given), the melting point fell in the range of 168 to 169 °C.

In the case of `Cc1ccc(C)n1N(C)c1ccc(N2CCOCC2)nn1`, the melting point is 119 to 122 °C.

Consider `CCOC(=O)Cn1c2c([nH]c(=O)c1=O)CCC1=C2C=C(n2ccc(N3CCN(c4ccc([N+](=O)[O-])cc4)CC3)c2)CC1`, for which the melting point came to 229 °C. `CN1CCOc2ccc(S(=O)(=O)Nc3ccc(CCl)cc3I)cc21` had a melting point of 109 to 110 °C. Next, `Cc1ccc(-c2nc(-c3ccc(C)cc3C)nc(-c3ccc(OCC(=O)OC4CC(C)(C)N(OC5CCCCC5)C(C)(C)C4)cc3O)n2)c(C)c1`: 105 to 109 °C; `Cc1c(Cl)cc(N2CCN(CCCCN3C(=O)c4ccccc4S3(=O)=O)CC2)c2c1OCCO2`: 136 to 137 °C. Next, `CC(C)c1cccc(C(C)C)c1NS(=O)(=O)CC(=O)NCC(c1ccccc1)C1CCCC1` (stereo not given): 168 to 170 °C; `Cc1cc(CO)cc(Cl)n1`: 112 to 113 °C. With `COC(=O)c1cc(C(=O)O)cc(C(=O)OC)c1C(=O)OC`, the melting point lay in the range of 143 to 144 °C. Molecule `O=S(=O)(NCc1ccccc1)c1ccc2nc(S)sc2c1` yielded a melting point of 214 to 215 °C. The value for `Cc1nc(-n2ccc(OCc3ccc(C(F)(F)F)cc3)cc2=O)sc1C(=O)NCc1ccccc1` was 278 to 280 °C; that for `CC1(C)C(=O)Oc2ccc3ccc(Cn4cncn4)cc3c21` was 136 to 137 °C; that for `Cc1ccc(-n2nc(C(=O)CCCO[N+](=O)[O-])cc2-c2ccc(S(C)(=O)=O)cc2)cc1` was 107 to 109 °C. The value for `Cn1cc(-c2cc3cccnc3[nH]2)c2cc(C(=O)N(CCO)CCO)ccc21` was 230 to 232 °C; that for `C=CCC(c1c(Cl)c(Cl)cc2[nH]c(=O)c(=O)[nH]c12)S(C)(=O)=O` (stereo not given) was 270 to 272 °C. As for `NCC(c1ccc(F)cc1)C1CCCCC1O` (mixture of isomers), the melting point was in the range of 75 to 76 °C. Next, `CC(=O)c1ccc2cc(S(N)(=O)=O)sc2c1`: 154 to 155 °C; `CCCOc1ccc(S(=O)(=O)N2CCN(C)CC2)cc1-c1cc2c([nH]1)c(=O)n(C)c(=O)n2CCC`: 198 °C; `N#CCCNC(=O)c1cccc(-c2cccc3nc(C(O)c4cccc(C(F)(F)F)c4)cn23)c1` (stereo not given): 223 to 224 °C.

The molecule `CC(=O)c1ccc(C2=C(c3ccc(S(C)(=O)=O)cc3)OC3(CCCC3)C2=O)cc1` gave a melting point of 126 to 130 °C. On to `ClCc1ccc(C#Cc2ccccc2)cc1`, for which the melting point fell in the range of 61.5 to 63.5 °C. Next, `Cc1c(C(=O)Nc2ccc(N3CCC(N4CCCCC4)CC3)c(C#N)c2)cnn1-c1ccc(F)cc1`: 237 to 238 °C; `COc1ccc(-n2c(S)nc3cc(OC)cc(OC)c3c2=O)cc1`: 322 to 326 °C; `COc1cc2c(cn1)C(=O)N(C(C)C)C2=O`: 150 to 152 °C. The value for `O=C1Nc2nnccc2C(=O)C1c1c(F)cc(F)cc1F` (stereo not given) was over 330 °C. The value for `CC(C)(C)OC(=O)[C@@H]1CC[C@H](NC(=O)CNC(=O)c2ccc(OCc3ccccc3)c(C(C)(C)C)c2)[C@H](C(=O)O)C1` was 126 to 132 °C. `COC(=O)[C@H]1CN(C(=O)OC(C)(C)C)C[C@H]1c1ccc(OC)c(OC2CCCC2)c1` (relative stereo) returned a melting point of 85 to 87 °C.

Regarding `O=Cc1c(O)ccc2c1OCCO2`, the melting point fell in the range of 62 to 63 °C. The value for `O=C(O)[C@@H]1Cc2ncn(Cc3ccccc3)c2CN1C(=O)c1ccccc1` was 233 to 235 °C. Next, `O=C(Cc1ccc(F)cc1)c1ccc(F)cc1`: 91 to 93 °C. On to `O=C1NC(=O)c2c1c(-c1ccccc1Cl)cc1oc3ccc(O)cc3c21`, for which the melting point was in the range of 140 to 145 °C. Next, `CSc1ccc(Cl)c(C(=O)Nc2ccc(-n3nc(C4CC4)cc3C3CC3)cc2)c1`: 168 to 173 °C; `O=C(Nc1nccs1)c1nc(-c2cccc3ccccc23)[nH]c1-c1ccc(F)cc1`: 218 to 220 °C; `COc1nc2cc(SCCCc3cc4c(cc3O)CC(CCc3ccccc3)O4)ccc2cc1C(=O)O` (stereo not given): 157 to 161 °C. Next, `CCCc1nc(-n2cccc2)c(C(=O)OCC)[nH]1`: 134 to 135 °C; `O=C(O)C(=O)c1ccc(OCCOc2ccc(F)cc2)cc1`: 97 to 98 °C; `O=C(O)c1cnc(N2CCN(CC3CC3)C2=O)s1`: 250 to 252 °C. The value for `c1ccc(COc2cccc3c2NCC3)cc1` was 58 to 60 °C; that for `CCCc1c(OCCCCCOc2ccc(C(C)=O)cc2CCC(=O)O)ccc2c1OCCC2=O` was 115 to 118 °C; that for `O=C(O)CCCc1cccc(OCc2cn(-c3ccc(C(F)(F)F)cn3)nc2C2CCCCC2)c1` was 128 to 129 °C. With `Cc1nnc2n1-c1ccc([N+](=O)[O-])cc1C(c1ccccc1Cl)=NC2(C)C`, the melting point amounted to 283 °C. The value for `N#Cc1cnc2c(NC(=O)c3c(Cl)cccc3Cl)cccc2c1CO` was 249 to 250 °C; that for `CCN1CCc2ccc(Nc3ncc(C(F)(F)F)c(Nc4ccccc4C(=O)NC)n3)cc2CC1` was 226 °C.

With `O=C(CN1CCOCC1)Nc1cccc2c1C(=O)c1c-2n[nH]c1-c1ccc(N2CCOCC2)cc1`, the melting point turned out to be 258 °C. As for `CN1C(=O)N(C[C@H](C(=O)NOCc2ccccc2)[C@@H](CC2CCCC2)C(=O)N2CCCCC2)C(=O)C1(C)C`, the melting point fell in the range of 138 to 140 °C. The value for `CC#CCOc1ccc(SC(C(=O)NO)c2ccccc2OC)cc1` (stereo not given) was 172 to 173 °C; that for `CC(=O)c1ccc(Br)cn1` was 112 °C. Next, `CCOC1Nc2c(ccc(C)c2OC(C)=O)C(=O)N2CCCC12` (stereo not given): 145 to 147 °C.

On to `Cc1ccc(S(=O)(=O)c2ccc(C)cc2CC(Cl)(Cl)C#N)c(CC(Cl)(Cl)C#N)c1`, for which the melting point was in the range of 71 to 72 °C.

Molecule `CC(=O)C(C)(O)c1ccc(O)cc1` (stereo not given) showed a melting point of 101 to 102 °C. Next, `COC(=O)COc1cccc2c(CCOS(C)(=O)=O)coc12`: 111 °C. The value for `NC(=S)NN=Cc1c2ccccc2c(C=NNC(N)=S)c2ccccc12` was 275 to 277 °C; that for `CCCCN(O)C1CC(C)(C)N(C(C)=O)C(C)(C)C1` was 52 to 54 °C; that for `Cc1sc2c(Br)c3ccccc3c(-c3cc(Br)c(O[C@@H](CCc4ccccc4)C(=O)O)c(Br)c3)c2c1C` was 176 to 177 °C. `CC(C)(C)OC(=O)Nc1ccc(-c2ccc(F)cc2F)cc1NC(=O)CC(=O)c1ccnc(C#N)c1` showed a melting point of 160 to 161 °C. Next, `N#Cc1ccc2c(c1)CCC=C2n1ccnc1`: 152 to 153 °C; `Cc1nc2ccccc2n1-c1ccccn1`: 121 to 123 °C. Next, `COC(=O)c1cccnc1CN1C(=O)C(NC(=O)Nc2cccc(C)c2)N=C(c2ccccc2F)c2ccccc21` (racemic): 171 to 175 °C; `Cc1nc(-n2ccc(O)cc2=O)sc1C(=O)NCc1cccnc1`: 238 to 240 °C; `CNC(=O)c1ccn2c(C(=O)N3CCNCC3)c(Cc3cccc(F)c3C)c(-c3ccccc3)c2c1`: 205 °C.

`COCOc1ccc(-c2ncc3ncc(N4CCNCC4=O)cc3n2)cc1` yielded a melting point of 200 to 202 °C. With `Cc1cc(SCc2sc(-c3ccc(F)c(F)c3)nc2C)ccc1OCC(=O)O`, the melting point was found to be 119 °C. With `CS(=O)(=O)c1ccc2c(c1)C=C(C(=O)O)C(C(F)(F)F)O2` (stereo not given), the melting point was in the range of 208 to 212 °C. In turn, `CC(=O)N1CCc2cc(O)ccc2C1` returned a melting point of 135 to 136 °C. On to `C=Cc1cn(-c2c(Cl)cc(C(F)(F)F)cc2Cl)cc1C#N`, for which the melting point lay within 55 to 60 °C. The value for `O=C(CCCN1CCN(c2ccc(F)cc2)CC1)NC1c2ccccc2CSc2ccccc21` (stereo not given) was 194 °C.

In the case of `CSc1ccc(/C=C2/C(C)=C(CCCCN(O)C(N)=O)c3cc(F)ccc32)cc1`, the melting point fell in the range of 154 to 157 °C. `COc1ccccc1Cc1ccc(Cl)nn1` registered a melting point of 63 °C. Regarding `CNc1cc(N)c(CCCN)c2c1C(=O)c1ccccc1C2=O`, the melting point stood at 142 °C. As for `COC(=O)[C@@H](Cc1ccccc1)Oc1c(Br)cc(-c2c3ccccc3c(Br)c3sc4ccccc4c23)cc1Br`, the melting point was in the range of 138 to 140 °C.

`CCOC(=O)COc1ccc2c(c1)CCCC2=O` registered a melting point of 39 to 41 °C.

In turn, `O=C(c1ccccc1[N+](=O)[O-])C1CCN(C(=O)C(F)(F)F)CC1` had a melting point of 126 °C. The molecule `O=C(c1ncc[nH]1)c1cc(F)c(F)cc1Cl` gave a melting point of 80 to 81 °C. Next, `CC(CC(F)(F)CC(Cl)(CO)CO)C1CCC2C3CC=C4CC(O)CCC4(C)C3CCC12C` (stereo not given): 152 to 153 °C; `Cc1nc(CS(=O)(=O)c2cccs2)sc1-c1ccnc(Nc2ccc(N3CCOCC3)cc2)n1`: 187 to 189 °C. `C=Cc1ccc(O)c(-n2nc3ccccc3n2)c1` returned a melting point of 98 to 99 °C. Next, `COc1ccc(Nc2nc(-c3ccccc3)cc(N3CCC(O)CC3)n2)cc1Cl`: 220 to 240 °C; `O=C(O)c1ncn2c1[C@@H]1CCN1C(=O)c1c(Cl)cccc1-2`: 244 to 245 °C. `CC(C)(C)OC(=O)N1CCC[C@@H](OC(=O)c2ccc(C(=O)c3ccccc3)cc2)[C@H](NC(=O)c2ccc(OC(C)(C)C)cc2)C1`: the melting point is 145 to 148 °C. Turning to `C1=C(c2c[nH]c3ccccc23)CCN(CC2COc3ccc4nocc4c3O2)C1` (stereo not given), the melting point is 110 °C.
